Patent publication US9321757B2, “Heterocyclic compound” (Takeda Pharmaceutical Company Limited, priority 2013, dated 2016)

Key:
[1] = system: tumor necrosis factor (TNFα) production in the serum; experiment: R848 Tolerance Test in Rat; format: in vivo; conditions: Lewis rat serum 1 hr after R848 i.p., mean ± S.E.
Procedure: 6-Week-old male LEW/CrlCrlj (Lewis) rats (Japane Charles River Laboratories) were used as 8 rats/group. R848 (Enzo Life Sciences) was dissolved in dimethyl sulfoxide (500 mM), and the concentration of solution was adjusted to 300 μM with saline, and 1.0 mL thereof was intraperitoneally administered in the rat. The compound was orally administered 1 hr before R848 administration. 0.5% Methyl cellulose (5 mL/kg) was orally administered as a control. The blood was collected from the abdominal aorta 1 hr after R848 administration. The blood was left overnight at 4° C., and the serum was collected by centrifugation. The amount of the tumor necrosis factor (TNFα) production in the serum was measured by […] TNF-alpha Quantikine ELISA Kit (R&D Systems). Shirley-Williams test was used for a dose-dependent manner, and p≦0.05 was evaluated as a significance level.

[2] = target: T1, IRAK-4 (Homo sapiens, UniProt Q9NWZ3); experiment: IRAK-4 Enzyme Inhibition Test (LANCE method); format: biochemical; conditions: compound concentration 1 μM; well without enzyme = 100% inhibition; read-out: IRAK4 enzyme inhibitory rate (%) at 1 μM
T1 construct: purchased Carna Biosciences, Inc
T1 sequence (Q9NWZ3 1-460): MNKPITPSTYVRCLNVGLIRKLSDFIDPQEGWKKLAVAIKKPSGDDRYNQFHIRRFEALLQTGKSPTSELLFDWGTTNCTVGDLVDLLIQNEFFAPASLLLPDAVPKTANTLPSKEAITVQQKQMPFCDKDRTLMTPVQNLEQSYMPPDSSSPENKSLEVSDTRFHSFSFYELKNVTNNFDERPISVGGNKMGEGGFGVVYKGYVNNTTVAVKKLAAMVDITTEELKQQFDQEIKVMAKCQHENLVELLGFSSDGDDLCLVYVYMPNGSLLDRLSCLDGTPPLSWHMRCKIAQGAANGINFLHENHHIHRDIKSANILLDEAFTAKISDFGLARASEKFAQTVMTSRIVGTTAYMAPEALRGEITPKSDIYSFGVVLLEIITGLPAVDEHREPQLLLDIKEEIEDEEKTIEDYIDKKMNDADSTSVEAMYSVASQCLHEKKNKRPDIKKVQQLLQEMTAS
Procedure: IRAK-4 enzyme inhibitory activities of test compounds were measured by LANCE method (PerkinElmer). First, a test compound diluted with assay buffer (50 mM HEPES (pH7.5), 10 mM MgCl2, 1 mM EGTA, 2 mM DTT, 0.01% Tween 20, 0.01% BSA) was added to 384-well plate at 2 μL each. Then, IRAK-4 (Carna Biosciences, Inc.) and a fluorescence-labeled peptide substrate (ULight-ACC peptide, PerkinElmer) solution diluted with assay buffer at 240 ng/mL and 37.5 nM, respectively were added at 2 μL each. Then, enzyme reaction was started by adding 2 μL each of ATP solution prepared with assay buffer at 1.5 mM. After the reaction at room temperature for 1 hr, Detection Buffer (PerkinElmer) prepared to be 20 mM EDTA, 1 nM europium-labeled anti-phospho ACC antibody (PerkinElmer) was added at 6 μL each. After standing at room temperature for 1 hr, fluorescence intensity (excitation wavelength 340 nm, fluorescence wavelength 665 nm, delay time 100 microseconds) was measured by a plate reader, Envision (PerkinElmer). The inhibitory activity of each compound was calculated as relative value where fluorescence intensity of a well without enzyme is considered as 100% inhibition.

[3] = system: NC1-induced nephritis; format: in vivo, rat
Procedure: 8-Week-old female WKY rats (Japan Charles River Laboratories) were used as 7 rats/group. Bovine NC1 (The non-collagenous domain of α3 chain of type IV collagen, Chondrex, inc) was dissolved in phosphate buffer to adjust the concentration to 0.3 mg/mL. The equal amount of complete Freund's adjuvant (H37 Ra, Diffco) was added thereto to give an emulsion. The emulsion (0.2 mL) was inoculated intracutaneously into the rat tail head (the 0 day). The compound was orally administered for 5 weeks (the 0 to 35th day, twice a day). 0.5% Methyl cellulose (5 mL/kg) was orally administered as a control. The urine was collected for 4 hr on the −1st day (Pre value) and the 35th day. The collected urine was centrifuged at 400 G, for 5 min at 4° C., the supernatant was kept at −80° C., and the amounts of creatinine and protein were measured. The body weight was measured on the 0th day and the 35th day. A comparison between the groups was analyzed by Dunnett test, and p≦0.05 was evaluated as a significance level.

| inhibition at 1 µM [2] | Compound | TNFα production amount ([1]; 0.3 mg/kg orally 1 hr before R848, Control 1090 ± 137) | TNFα production amount ([1]; 1 mg/kg orally 1 hr before R848, Control 1090 ± 137) | TNFα production amount ([1]; 3 mg/kg orally 1 hr before R848, p ≦ 0.05 vs. Control 1090 ± 137) | TNFα production amount ([1]; 10 mg/kg orally 1 hr before R848, p ≦ 0.05 vs. Control 1090 ± 137) | Proteinuria (mg/mg Cre 4 hr), Pre (−1st day) ([3]; WKY rat, 3 mg/kg group, Pre value (−1st day, before immunisation and dosing), mean ± S.E.) | Proteinuria (mg/mg Cre 4 hr), 35th day ([3]; WKY rat, 3 mg/kg orally twice a day, 0 to 35th day, mean ± S.E., p ≦ 0.05 vs. Control 31.7 ± 4.26) | Body weight difference from the 0th day on the 35th day (g) ([3]; rat, in vivo, po, 3 mg/kg) | TNFα production amount ([1]; 0.27 mg/kg orally 1 hr before R848, Control 945 ± 106) | TNFα production amount ([1]; 0.91 mg/kg orally 1 hr before R848, Control 945 ± 106) | TNFα production amount ([1]; 2.73 mg/kg orally 1 hr before R848, Control 945 ± 106) | TNFα production amount ([1]; 9.09 mg/kg orally 1 hr before R848, p ≦ 0.05 vs. Control 945 ± 106) |
| --- | --- | --- | --- | --- | --- | --- | --- | --- | --- | --- | --- | --- |
| 100% | Cn1cc(NC(=O)c2coc(-c3ccnc(NCC(F)(F)F)c3)n2)c(N2CCN(CCO)C2=O)n1 [Example 57, N-(3-(3-(2-hydroxyethyl)-2-oxoimidazolidin-1-yl)-1-methyl-1H-pyrazol-4-yl)-2-(2-((2,2,2-trifluoroethyl)amino)pyridin-4-yl)-1,3-oxazole-4-carboxamide] | 1349 ± 181 pg/mL | 736 ± 76.2 pg/mL | 306 ± 45.9 pg/mL | 236 ± 26.8 pg/mL | 0.32 ± 0.05 mg/mg Cre 4 hr | 18.1 ± 2.43 mg/mg Cre 4 hr | +63.7 ± 2.8 g |  |  |  |  |
| 99% | Cn1cc(NC(=O)c2coc(-c3ccnc(NCC(F)(F)F)c3)n2)c(N2CCNC2=O)n1 [Example 58, N-(1-methyl-3-(2-oxoimidazolidin-1-yl)-1H-pyrazol-4-yl)-2-(2-((2,2,2-trifluoroethyl)amino)pyridin-4-yl)-1,3-oxazole-4-carboxamide] |  |  |  |  |  |  |  | 1070 ± 160 pg/mL | 804 ± 116 pg/mL | 628 ± 31.1 pg/mL | 326 ± 41.1 pg/mL |
